From patent US9283222B2 (priority 2006, dated 2016)
Where two headings read alike, the source gives them in different places.

Tests used:
[1] = biological target: T1, PARP in C41 cells (Homo sapiens (Human), UniProt P09874); assay: cell-based
[2] = biological target: T1, PARP in C41 cells
[3] = biological target: Recombinant Human Poly(ADP-Ribose) Polymerase (PARP), PARP-1 (Homo sapiens (Human), UniProt P09874); settings: read-out: PARP-1 (Ki); Table 3; H analogs versus para-F analogs
[4] = Table 3, C41 cells, ratio to comparator EC50

Chain of Recombinant Human Poly(ADP-Ribose) Polymerase (PARP), PARP-1 (P09874 whole entry): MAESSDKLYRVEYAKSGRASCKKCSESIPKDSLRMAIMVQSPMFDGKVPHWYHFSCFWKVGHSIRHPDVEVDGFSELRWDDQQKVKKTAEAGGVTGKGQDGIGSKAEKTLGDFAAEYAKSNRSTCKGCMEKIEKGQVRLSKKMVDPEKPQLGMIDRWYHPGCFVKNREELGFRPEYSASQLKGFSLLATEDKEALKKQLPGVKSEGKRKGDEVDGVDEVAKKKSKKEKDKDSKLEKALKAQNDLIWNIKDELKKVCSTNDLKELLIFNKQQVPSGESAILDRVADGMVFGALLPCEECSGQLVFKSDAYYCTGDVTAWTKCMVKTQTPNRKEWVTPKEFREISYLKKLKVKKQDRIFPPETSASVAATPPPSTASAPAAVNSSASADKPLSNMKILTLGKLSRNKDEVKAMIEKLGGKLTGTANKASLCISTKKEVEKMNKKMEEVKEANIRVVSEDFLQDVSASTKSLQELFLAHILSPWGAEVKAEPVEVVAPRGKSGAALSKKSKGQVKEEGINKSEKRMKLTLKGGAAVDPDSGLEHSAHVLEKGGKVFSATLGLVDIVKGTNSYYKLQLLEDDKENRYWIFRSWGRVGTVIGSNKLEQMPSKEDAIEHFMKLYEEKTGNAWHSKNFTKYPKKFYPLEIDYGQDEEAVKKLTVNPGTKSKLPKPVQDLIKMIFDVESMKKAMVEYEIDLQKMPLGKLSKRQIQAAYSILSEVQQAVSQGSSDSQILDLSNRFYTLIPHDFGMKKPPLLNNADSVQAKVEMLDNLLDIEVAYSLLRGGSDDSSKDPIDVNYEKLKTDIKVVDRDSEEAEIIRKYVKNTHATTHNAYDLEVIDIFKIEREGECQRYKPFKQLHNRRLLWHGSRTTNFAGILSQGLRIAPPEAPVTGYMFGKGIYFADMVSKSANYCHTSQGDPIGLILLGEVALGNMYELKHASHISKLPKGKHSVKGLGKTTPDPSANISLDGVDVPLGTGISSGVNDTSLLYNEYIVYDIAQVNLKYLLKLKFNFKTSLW
T1 sequence (P09874 whole entry): as above

| SMILES | EC50 ([1]; EC50 generally ranged, range over all assays) | EC50 ([1]; mean EC50 for all assays carried out, n=270) | Cell EC50 ratio [2] | Ki [3] | Cell EC50 ratio [2, 4] |
| --- | --- | --- | --- | --- | --- |
| CCCN1CCC(c2nc3cccc(C(N)=O)c3[nH]2)CC1 | 1 to 13 nM | 3.2 nM | – | – | – |
| O=C(c1cc(Cc2n[nH]c(=O)c3c2CCCC3)ccc1F)N1CCN(c2ccc(F)cc2)CC1 [drawing 41] | – | – | 0.8 | 4 nM | – |
| CN1CCCN(C(=O)c2cccc(Cc3n[nH]c(=O)c4c3CCCC4)c2)CC1 [drawing 42] | – | – | – | 10 nM | 3.8 |
| CN1CCCN(C(=O)c2cc(Cc3n[nH]c(=O)c4c3CCCC4)ccc2F)CC1 [drawing 43] | – | – | 0.6 | 1.5 nM | – |
| NC(=O)C1CCCN(C(=O)c2cc(Cc3n[nH]c(=O)c4c3CCCC4)ccc2F)C1 (centres unmarked) [drawing 45] | – | – | – | 3 nM | 28 |
| O=C(c1cccc(Cc2n[nH]c(=O)c3c2CCCC3)c1)N1CCC(O)CC1 [drawing 46] | – | – | – | 5 nM | 13 |
| O=C(c1cc(Cc2n[nH]c(=O)c3c2CCCC3)ccc1F)N1CCC(O)CC1 [drawing 47] | – | – | – | 1.3 nM | 2 |
| NC(=O)C1CCN(C(=O)c2cccc(Cc3n[nH]c(=O)c4c3CCCC4)c2)CC1 [drawing 48] | – | – | – | 5 nM | 215 |
| NC(=O)C1CCN(C(=O)c2cc(Cc3n[nH]c(=O)c4c3CCCC4)ccc2F)CC1 [drawing 49] | – | – | – | 2.7 nM | 25 |
| CCN(CC)C(=O)C1CCCN(C(=O)c2cc(Cc3n[nH]c(=O)c4c3CCCC4)ccc2F)C1 (centres unmarked) [drawing 51] | – | – | – | 6 nM | 17 |
| CN(C)CCN(C)C(=O)c1cc(Cc2n[nH]c(=O)c3c2CCCC3)ccc1F [drawing 53] | – | – | – | 3.6 nM | 0.7 |
| CN1CCN(CCNC(=O)c2cccc(Cc3n[nH]c(=O)c4c3CCCC4)c2)CC1 [drawing 54] | – | – | – | 24 nM | 31 |
| CN1CCN(CCNC(=O)c2cc(Cc3n[nH]c(=O)c4c3CCCC4)ccc2F)CC1 [drawing 55] | – | – | – | 1.1 nM | 0.6 |
